Measurements: PMC10753746 (ACS Omega, 2023)

What was measured:
[1] = target: LPA2 (Homo sapiens, UniProt Q9HBW0); test: TGFα shedding assay, LPA2; assay type: cell-based; conditions: for EC50: EC50, HEK293 cells, human LPA2 + AP-TGFα + Gαq/s, 1 h 37°C; for <RIA>: relative to 18:1-LPA (1) = 1 of the same table
[2] = target: T1, LPA4 (Homo sapiens, UniProt Q99677)
[3] = target: LPA1 (Homo sapiens, UniProt Q92633)
[4] = target: LPA5 (Homo sapiens, UniProt Q9H1C0)
[5] = target: T1, LPA4; test: cell-based

T1 sequence (Q99677 whole entry): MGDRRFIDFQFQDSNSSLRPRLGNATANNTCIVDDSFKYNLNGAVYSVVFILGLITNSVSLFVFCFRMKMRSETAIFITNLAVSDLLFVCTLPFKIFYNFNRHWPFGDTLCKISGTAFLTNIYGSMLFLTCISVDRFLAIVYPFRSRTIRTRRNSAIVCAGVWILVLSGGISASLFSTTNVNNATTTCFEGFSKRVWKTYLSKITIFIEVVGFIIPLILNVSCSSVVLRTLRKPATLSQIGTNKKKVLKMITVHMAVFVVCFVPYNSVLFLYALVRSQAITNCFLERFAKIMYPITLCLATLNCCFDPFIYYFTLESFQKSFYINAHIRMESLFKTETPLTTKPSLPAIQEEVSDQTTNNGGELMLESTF
Chain of LPA2 (Q9HBW0 whole entry): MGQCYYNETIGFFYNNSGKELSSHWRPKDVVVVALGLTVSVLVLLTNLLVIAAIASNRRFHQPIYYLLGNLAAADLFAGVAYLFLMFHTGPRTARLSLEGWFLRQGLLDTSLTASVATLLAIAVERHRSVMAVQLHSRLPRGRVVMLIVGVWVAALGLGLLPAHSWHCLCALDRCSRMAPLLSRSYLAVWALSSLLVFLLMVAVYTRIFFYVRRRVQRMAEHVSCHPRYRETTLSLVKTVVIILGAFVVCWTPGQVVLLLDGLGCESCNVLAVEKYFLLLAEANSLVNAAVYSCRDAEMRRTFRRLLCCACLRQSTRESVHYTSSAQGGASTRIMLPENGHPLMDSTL
Chain of LPA1 (Q92633 whole entry): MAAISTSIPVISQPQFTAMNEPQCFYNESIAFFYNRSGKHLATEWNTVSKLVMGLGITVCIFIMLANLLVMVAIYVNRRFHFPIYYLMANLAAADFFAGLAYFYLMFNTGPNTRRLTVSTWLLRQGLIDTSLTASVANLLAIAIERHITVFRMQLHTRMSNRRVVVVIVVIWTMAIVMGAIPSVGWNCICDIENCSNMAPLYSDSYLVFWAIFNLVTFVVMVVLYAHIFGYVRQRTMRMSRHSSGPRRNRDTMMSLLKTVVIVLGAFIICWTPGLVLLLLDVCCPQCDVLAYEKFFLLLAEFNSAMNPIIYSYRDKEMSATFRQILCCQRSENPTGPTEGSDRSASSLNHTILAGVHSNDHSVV
Chain of LPA5 (Q9H1C0 whole entry): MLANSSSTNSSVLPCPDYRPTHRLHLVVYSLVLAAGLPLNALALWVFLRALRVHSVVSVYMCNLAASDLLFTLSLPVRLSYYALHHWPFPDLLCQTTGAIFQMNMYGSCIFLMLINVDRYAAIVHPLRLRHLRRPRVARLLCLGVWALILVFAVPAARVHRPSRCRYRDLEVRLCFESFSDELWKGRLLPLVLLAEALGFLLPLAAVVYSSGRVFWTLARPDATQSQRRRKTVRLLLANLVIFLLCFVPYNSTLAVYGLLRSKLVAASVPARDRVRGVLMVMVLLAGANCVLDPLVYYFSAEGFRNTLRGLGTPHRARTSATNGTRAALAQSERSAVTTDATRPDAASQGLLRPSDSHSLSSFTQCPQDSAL

SMILES | Emax [1] | EC50 [1] | Emax [2] | other results
CCCCCCCCCCCCCCCCO[C@@H]1CCCO[C@H]1COP(O)(O)=S [MZN-018] | 16% | 1000 nM | 6.4% | <RIA> ([1]; LPA2): <0.012>
CCCCCCc1ccccc1CCCCCCC(=O)O[C@@H]1CCCO[C@H]1COP(O)(O)=S [MZN-023] | – | – | 18% | –
CCCCCCCC/C=C/CCCCCCCC(=O)O[C@@H]1CCCO[C@H]1COP(O)(O)=S [MZN-022] | – | – | 23% | Emax [3]: 16%; Emax [4]: 51%
CCCCCCCCCCCCCCCC(=O)N1CCC[C@H]1COP(O)(O)=S [MZN-020] | 44% | 630 nM | 19% | –
CCCCCCc1ccc(CCCCCCC(=O)O[C@@H]2CCCO[C@H]2COP(O)(O)=S)cc1 [MZN-025] | – | – | 23% | –
CCCCCCCC/C=C\CCCCCCCC(=O)N1CCC[C@H]1COP(O)(O)=S [MZN-019] | 42% | 1600 nM | 16% | EC50 [5]: 8.32 nM; <RIA> ([1]; LPA2): <0.022>
CCCCCCCCCCCCCCCC(=O)O[C@@H]1CCCO[C@H]1COP(O)(O)=S [MZN-021] | – | – | 21% | agonistic activity in words ([1]; LPA2): no activity
CCCCCCc1cccc(CCCCCCC(=O)O[C@@H]2CCCO[C@H]2COP(O)(O)=S)c1 [MZN-024] | – | – | 22% | –
